Reference: US20220372066A1, “HUMAN SQUALAMINE DERIVATIVES (ENT-06), RELATED COMPOSITIONS COMPRISING THE SAME, AND METHOD OF USING THE SAME” (Enterin, Inc., priority 2019, published 2022)

Columns and labels:
[1] = test system: mice with constipation due to overexpression of human αS; settings: orally administered; cited from earlier work
[2] = test system: murine stomach tissue gene expression profile; assay: Congruence analysis of differentially expressed stomach genes, ENT-01 vs ENT-06; format: in vivo, mouse
From the text: Genes that were differentially expressed in response to ENT-01 treatment, as identified in this study, were compared to those that were associated with ENT-06 treatments, respectively. ENT-06 treatment-associated gene expression changes were identified previously. Across all contrasts at the relevant statistical thresholds used to identify significant features, there were ten or less genes that changed in expression upon both treatments (ENT-01 and ENT-06). Note that this included the gene expression changes associated with ageing.
Congruence analysis was performed between the contrasts Specifically, the analysis compared the effects of human- or shark-origin compound analogues on murine stomach tissue gene expression profile as follows: ENT-01 was compared to ENT-06. Scatter plots, upset plots, venn diagrams, hypergeometric tests and Spearman rank correlation tests were employed to assess the level of overlap. […] Whereas the ENT-01 contrasts in this study defined significant genes using a cutoff of greater than four-fold change in expression.
Congruence between these sets of genes was then assessed by comparing ENT-01-affected genes to those of ENT-06. […] The symbol U denotes the universe. Overlap was assessed between ENT-01 vs control (young) (202 genes) and ENT-06 vs untreated (young) (26 genes). 10 genes overlapped between the two sets when not considering direction of change. […] The Spearman rank correlation between the genes in the two sets was −0.1313.
Congruence analysis for: ENT-01 vs ENT-06 (old) was also conducted. […] Overlap was assessed between ENT-01 vs control (old) (383 genes) and ENT-06 vs untreated (old) (55 genes). 1 genes overlapped between the two sets when not considering direction of change. This is no more than would be expected by chance (p=0.5057). The Spearman rank correlation between the genes in the two sets was 0.003217.

[3] = test system: mouse stomach tissues gene expression; assay: Treatment induced gene expression in mouse stomach tissues, RNA-sequencing, differential expression by fold change (Example 3); format: in vivo; settings: for Number of significant features, Down-regulated, fold change threshold 1.3× / Number of significant features, Down-regulated, fold change threshold 2× / Number of significant features, Down-regulated, fold change threshold 4× / Number of significant features, Down-regulated, fold change threshold 8× / Number of significant features, Down-regulated, fold change threshold 16× / Number of significant features, Down-regulated, fold change threshold Any / Number of significant features, Up-regulated, fold change threshold 1.3× / Number of significant features, Up-regulated, fold change threshold 2× / Number of significant features, Up-regulated, fold change threshold 4× / Number of significant features, Up-regulated, fold change threshold 8× / Number of significant features, Up-regulated, fold change threshold 16× / Number of significant features, Up-regulated, fold change threshold Any: stomach
[4] = test system: mouse stomach RNA transcriptome; assay: RNAseq of stomach transcriptome in old mice after oral squalamine (Example 1); format: in vivo; settings: oral dosing 14 days
Experimental: The dosing schedule used to determine the effect of orally administered squalamine and ENT-02 (MSI-1436) on the GI tracts of young and old mice was as follows. Male C57B1/6 mice, aged 20 and 78 weeks, were obtained from Jackson labs. Animals were exposed to 12 hr light dark cycles and provided Teklad standard mouse diet and water ad lib.
Animals were dosed once daily by oral gavage in the morning for a total of 14 days. Animals were fasted 3-4 hours prior to dosing and 1 hour following. The test article was dissolved in 0.5% hydroxypropylcellulose in water. On day 15 the animals were euthanized by C02 asphyxiation, necropsied, and tissues prepared for histology and RNAseq analysis.
The GI tracts of the animals were sectioned into stomach, duodenum, jejunum, ileum, caecum, colon, and rectum. The tissues were then sent for histology, and the transcriptomes analyzed by RNAseq.

[5] = biological target: sodium-hydrogen exchanger (“NHE-3”) (Oryctolagus cuniculus, UniProt P26432); settings: Akhter, Nath et al. 1999; cited from earlier work
Chain of sodium-hydrogen exchanger (“NHE-3”) (P26432 30-832): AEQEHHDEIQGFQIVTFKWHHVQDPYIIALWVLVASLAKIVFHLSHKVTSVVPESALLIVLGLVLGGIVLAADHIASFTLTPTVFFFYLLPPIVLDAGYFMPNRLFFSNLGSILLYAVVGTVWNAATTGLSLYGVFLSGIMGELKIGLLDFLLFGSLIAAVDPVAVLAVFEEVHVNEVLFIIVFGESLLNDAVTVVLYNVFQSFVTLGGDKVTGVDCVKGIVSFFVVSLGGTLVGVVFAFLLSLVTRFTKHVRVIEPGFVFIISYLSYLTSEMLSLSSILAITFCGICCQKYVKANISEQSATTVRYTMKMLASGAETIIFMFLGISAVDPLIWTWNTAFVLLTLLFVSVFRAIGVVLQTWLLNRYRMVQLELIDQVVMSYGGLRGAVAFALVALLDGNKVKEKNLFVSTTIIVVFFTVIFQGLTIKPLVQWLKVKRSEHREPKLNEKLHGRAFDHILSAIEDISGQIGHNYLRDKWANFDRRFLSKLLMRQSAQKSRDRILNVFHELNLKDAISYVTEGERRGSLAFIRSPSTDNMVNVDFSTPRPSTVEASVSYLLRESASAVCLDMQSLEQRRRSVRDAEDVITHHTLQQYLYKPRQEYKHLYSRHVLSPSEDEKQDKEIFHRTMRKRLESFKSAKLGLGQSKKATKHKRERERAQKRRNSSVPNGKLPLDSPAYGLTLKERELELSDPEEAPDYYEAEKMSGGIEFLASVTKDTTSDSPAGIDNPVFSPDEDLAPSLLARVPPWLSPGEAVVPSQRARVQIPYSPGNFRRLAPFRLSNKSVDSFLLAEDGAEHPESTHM

[6] = cutoff greater than four-fold change in expression
[7] = Old vs young mice, both treated
[8] = treatment vs control (old mice)
[9] = treatment vs control (young mice)

In the case of CC(C)[C@@H](CC[C@@H](C)[C@H]1CC[C@H]2[C@@H]3[C@H](O)C[C@H]4C[C@@H](NCCCNCCCCN)CC[C@]4(C)[C@H]3CC[C@]12C)OS(=O)(=O)O (single isomer, unassigned) [ENT-01, squalamine], the gastro-intestinal motility [1] is given as “stimulates gastro-intestinal motility”, the “number of significant genes, treatment vs control (old)” value [2, 6] is given as 383 genes and the “number of significant genes, treatment vs control (young)” value [2, 6] is given as 202 genes. For the same compound, the “overlap of genes downregulated in aged mice with genes up-regulated in response to treatment in old mice” value ([3]; hypergeometric P<0.0001) was “overlapped significantly”, the “mRNA levels for all of the genes of Table 3 after treatment” value [4] was “significant increase” and the “inhibition of NHE-3” value [5] was “inhibit”.

With CC(C)[C@@H](CC[C@@H](C)[C@H]1CC[C@H]2[C@@H]3[C@H](O)C[C@H]4C[C@@H](NCCCNCCCCNCCCN)CC[C@]4(C)[C@H]3CC[C@]12C)OS(=O)(=O)O (single isomer, unassigned) [ENT-02 (MSI-1436), trodusquemine] the “Number of significant features, Down-regulated, fold change threshold 1.3×” value [3, 7] was 1986, the “Number of significant features, Down-regulated, fold change threshold 2×” value [3, 7] was 314 and the “Number of significant features, Down-regulated, fold change threshold 4×” value [3, 7] was 63. For the same compound, the “Number of significant features, Down-regulated, fold change threshold 8×” value [3, 7] was 8, the “Number of significant features, Down-regulated, fold change threshold 16×” value [3, 7] was 4 and the “Number of significant features, Down-regulated, fold change threshold Any” value [3, 7] was 7344. For the same compound, the “Number of significant features, Up-regulated, fold change threshold 1.3×” value [3, 7] was 2644, the “Number of significant features, Up-regulated, fold change threshold 2×” value [3, 7] was 676 and the “Number of significant features, Up-regulated, fold change threshold 4×” value [3, 7] was 190. For the same compound, the “Number of significant features, Up-regulated, fold change threshold 8×” value [3, 7] was 78, the “Number of significant features, Up-regulated, fold change threshold 16×” value [3, 7] was 39 and the “Number of significant features, Up-regulated, fold change threshold Any” value [3, 7] was 7669. The “Number of significant features, Down-regulated, fold change threshold 1.3×” value [3, 8] was 1395, the “Number of significant features, Down-regulated, fold change threshold 2×” value [3, 8] was 203 and the “Number of significant features, Down-regulated, fold change threshold 4×” value [3, 8] was 38. For the same compound, the “Number of significant features, Down-regulated, fold change threshold 8×” value [3, 8] was 7, the “Number of significant features, Down-regulated, fold change threshold 16×” value [3, 8] was 1 and the “Number of significant features, Down-regulated, fold change threshold Any” value [3, 8] was 7597. For the same compound, the “Number of significant features, Up-regulated, fold change threshold 1.3×” value [3, 8] was 2109, the “Number of significant features, Up-regulated, fold change threshold 2×” value [3, 8] was 657 and the “Number of significant features, Up-regulated, fold change threshold 4×” value [3, 8] was 298. For the same compound, the “Number of significant features, Up-regulated, fold change threshold 8×” value [3, 8] was 139, the “Number of significant features, Up-regulated, fold change threshold 16×” value [3, 8] was 42 and the “Number of significant features, Up-regulated, fold change threshold Any” value [3, 8] was 7416. For the same compound, the “Number of significant features, Down-regulated, fold change threshold 1.3×” value [3, 9] was 2429, the “Number of significant features, Down-regulated, fold change threshold 2×” value [3, 9] was 531 and the “Number of significant features, Down-regulated, fold change threshold 4×” value [3, 9] was 120. For the same compound, the “Number of significant features, Down-regulated, fold change threshold 8×” value [3, 9] was 43, the “Number of significant features, Down-regulated, fold change threshold 16×” value [3, 9] was 16 and the “Number of significant features, Down-regulated, fold change threshold Any” value [3, 9] was 7667. For the same compound, the “Number of significant features, Up-regulated, fold change threshold 1.3×” value [3, 9] was 1860, the “Number of significant features, Up-regulated, fold change threshold 2×” value [3, 9] was 232 and the “Number of significant features, Up-regulated, fold change threshold 4×” value [3, 9] was 30. The “Number of significant features, Up-regulated, fold change threshold 8×” value [3, 9] was 7, the “Number of significant features, Up-regulated, fold change threshold 16×” value [3, 9] was 1 and the “Number of significant features, Up-regulated, fold change threshold Any” value [3, 9] was 7346.

In the case of C[C@H](CCC[C@@H](C)[C@H]1CCC2C3C(CC[C@@]21C)[C@@]1(C)CC[C@H](NCCCNCCCCN)C[C@@H]1C[C@H]3O)C(=O)O (single isomer, unassigned) [ENT-06, 3-β-Spermidino-7α-hydroxy-5α-cholestanoic acid], the “Spearman rank correlation between the genes in the ENT-01 and ENT-06 sets” value ([2]; old mice) is reported as 0.003217, the “overlap of genes down-regulated in ageing and up-regulated in treatment, ENT-01 vs ENT-06” value ([2]; old mice) is reported as “did not overlap” and the “genes overlapping with ENT-01 vs control (old) set, not considering direction of change” value ([2]; old mice, p=0.5057) is reported as 1 genes. The “number of significant genes, treatment vs untreated (old)” value ([2]; threshold FDR-adjusted P<0.05) was 55 genes, the “number of significant genes, treatment vs untreated (young)” value ([2]; threshold FDR-adjusted P<0.05) was 26 genes and the “genes overlapping with ENT-01 vs control (young) set, not considering direction of change” value ([2]; young mice, p=1.721e−16) was 10 genes. For the same compound, the “Spearman rank correlation between the genes in the ENT-01 and ENT-06 sets” value ([2]; young mice, p=5.678e−57) was −0.1313.
